These are literature values, as cited in US5032582A, “Method for treating fungal infections with amphotericin B/cholesterol sulfate composition” (Liposome Technology, Inc., priority 1989, dated 1991).

For this data set the following is noted: in vivo.

Each structure is given as a SMILES string.

As for `CC(C)CCC[C@@H](C)[C@H]1CC[C@H]2[C@@H]3CC=C4C[C@@H](OS(=O)(=O)[O-])CC[C@]4(C)[C@H]3CC[C@]12C.[Na+]` [cholesterol sulfate, cholesterol 3-sulphate, sodium salt], the “toxicity” value is on record as “no known toxicity”.
